System: participants with SSc-RP
Test: Scleroderma Health Assessment Questionnaire (SHAQ): disability indices and visual analog scales
Format: in vivo, human
Procedure, shortened: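 Participants with SSc-RP completed the SHAQ at screening and each in-clinic visit. Standard and alternative disability indices (eight categories, 0–3; standard adjusts for aids/assistance) plus Raynaud's VAS on interference over the past 7 days. Reported as absolute change from baseline to end of each dosing period.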

[1] = Baseline, Tadalafil 5 mg (N = 5), Patients with Diagnosis of SSc, PP Population Part A
[2] = Day 12, Modified ITT, Part A, dose Cilnidipine 10 mg, Tadalafil 5 mg, or 10 mg + 5 mg
[3] = Day 12, Tadalafil 5 mg (N = 5), Patients with Diagnosis of SSc, PP Population Part A
[4] = Day 12, mITT Part A, SSc patients, cilnidipine 10 mg and/or tadalafil 5 mg as in the arm
[5] = Day 12, mITT Part A, SSc patients, cilnidipine 10 mg and/or tadalafil 5 mg as in the arm, subject 01-110 score excluded
[6] = In-Clinic Visit (Day 12), Tadalafil 5 mg (N = 5), Patients with Diagnosis of SSc, PP Population Part A
[7] = Modified ITT, Part A, dose Cilnidipine 10 mg, Tadalafil 5 mg, or 10 mg + 5 mg

Compound: CN1CC(=O)N2[C@H](c3ccc4c(c3)OCO4)c3[nH]c4ccccc4c3C[C@@H]2C1=O [Tadalafil, tadalafil]
- SHAQ Alternative Disability Index, Mean [1]: 0.450
- SHAQ Alternative Disability Index, Median [1]: 0.375
- SHAQ Standard Disability Index, Mean [1]: 0.550
- SHAQ Standard Disability Index, Median [1]: 0.500
- SHAQ Alternative Disability Index, Change from Baseline, Mean [2]: −0.094
- SHAQ Alternative Disability Index, Change from Baseline, Median [2]: −0.125
- SHAQ Alternative Disability Index, Percent Change from Baseline, Mean [2]: −43.70%
- SHAQ Alternative Disability Index, Percent Change from Baseline, Median [2]: −20.00%
- SHAQ Finger Ulcers, Change from Baseline, Mean [2]: 0.250
- SHAQ Finger Ulcers, Change from Baseline, Median [2]: 0.000
- SHAQ Finger Ulcers, Percent Change from Baseline, Mean [2]: 6.10%
- SHAQ Finger Ulcers, Percent Change from Baseline, Median [2]: 6.10%
- SHAQ Standard Disability Index, Change from Baseline, Mean [2]: −0.063
- SHAQ Standard Disability Index, Change from Baseline, Median [2]: −0.063
- SHAQ Standard Disability Index, Percent Change from Baseline, Mean [2]: −9.26%
- SHAQ Standard Disability Index, Percent Change from Baseline, Median [2]: −11.11%
- SHAQ Visual Analog Scale-Breathing Problems, Change from Baseline, Mean [2]: 0.500
- SHAQ Visual Analog Scale-Breathing Problems, Change from Baseline, Median [2]: 1.050
- SHAQ Visual Analog Scale-Breathing Problems, Percent Change from Baseline, Mean [2]: −2.66%
- SHAQ Visual Analog Scale-Breathing Problems, Percent Change from Baseline, Median [2]: 29.58%
- SHAQ Visual Analog Scale-Intestinal Problems, Change from Baseline, Mean [2]: −0.125
- SHAQ Visual Analog Scale-Intestinal Problems, Change from Baseline, Median [2]: 0.000
- SHAQ Visual Analog Scale-Intestinal Problems, Percent Change from Baseline, Mean [2]: −6.92%
- SHAQ Visual Analog Scale-Intestinal Problems, Percent Change from Baseline, Median [2]: 0.00%
- SHAQ Visual Analog Scale-Pain, Change from Baseline, Mean [2]: 1.000
- SHAQ Visual Analog Scale-Pain, Change from Baseline, Median [2]: 0.800
- SHAQ Visual Analog Scale-Pain, Percent Change from Baseline, Mean [2]: 31.35%
- SHAQ Visual Analog Scale-Pain, Percent Change from Baseline, Median [2]: 10.81%
- SHAQ Visual Analog Scale-Raynaud's, Change from Baseline, Mean [2]: −0.825
- SHAQ Visual Analog Scale-Raynaud's, Change from Baseline, Median [2]: −0.500
- SHAQ Visual Analog Scale-Raynaud's, Percent Change from Baseline, Mean [2]: −19.71%
- SHAQ Visual Analog Scale-Raynaud's, Percent Change from Baseline, Median [2]: −20.67%
- SHAQ Alternative Disability Index, Change from Baseline, Mean [3]: −0.094
- SHAQ Alternative Disability Index, Change from Baseline, Median [3]: −0.125
- SHAQ Alternative Disability Index, Percent Change from Baseline, Mean [3]: −43.70%
- SHAQ Alternative Disability Index, Percent Change from Baseline, Median [3]: −20.00%
- SHAQ Standard Disability Index, Change from Baseline, Mean [3]: −0.063
- SHAQ Standard Disability Index, Change from Baseline, Median [3]: −0.063
- SHAQ Standard Disability Index, Percent Change from Baseline, Mean [3]: −9.26%
- SHAQ Standard Disability Index, Percent Change from Baseline, Median [3]: −11.11%
- SHAQ Alternative Disability Index, Change from Baseline, Mean [4]: −0.094
- SHAQ Alternative Disability Index, Change from Baseline, Median [4]: −0.125
- SHAQ Alternative Disability Index, In-Clinic Visit (Day 12), Mean [4]: 0.375
- SHAQ Alternative Disability Index, In-Clinic Visit (Day 12), Median [4]: 0.250
- SHAQ Alternative Disability Index, Percent Change from Baseline, Mean [4]: −43.70%
- SHAQ Alternative Disability Index, Percent Change from Baseline, Median [4]: −20.00%
- SHAQ Visual Analogue Scale - Finger Ulcers, Change from Baseline, Mean [4]: 0.250
- SHAQ Visual Analogue Scale - Finger Ulcers, Change from Baseline, Median [4]: 0.000
- SHAQ Visual Analogue Scale - Finger Ulcers, In-Clinic Visit (Day 12), Mean [4]: 2.325
- SHAQ Visual Analogue Scale - Finger Ulcers, In-Clinic Visit (Day 12), Median [4]: 0.050
- SHAQ Visual Analogue Scale - Finger Ulcers, Percent Change from Baseline, Mean [4]: 6.10%
- SHAQ Visual Analogue Scale - Finger Ulcers, Percent Change from Baseline, Median [4]: 6.10%
- SHAQ Visual Analogue Scale - Intestinal Problems, Change from Baseline, Mean [4]: −0.125
- SHAQ Visual Analogue Scale - Intestinal Problems, Change from Baseline, Median [4]: 0.000
- SHAQ Visual Analogue Scale - Intestinal Problems, In-Clinic Visit (Day 12), Mean [4]: 3.025
- SHAQ Visual Analogue Scale - Intestinal Problems, In-Clinic Visit (Day 12), Median [4]: 1.450
- SHAQ Visual Analogue Scale - Intestinal Problems, Percent Change from Baseline, Mean [4]: −6.92%
- SHAQ Visual Analogue Scale - Intestinal Problems, Percent Change from Baseline, Median [4]: 0.00%
- SHAQ Visual Analogue Scale - Overall Disease Severity, Change from Baseline, Mean [4]: 0.625
- SHAQ Visual Analogue Scale - Overall Disease Severity, Change from Baseline, Median [4]: 0.700
- SHAQ Visual Analogue Scale - Overall Disease Severity, In-Clinic Visit (Day 12), Mean [4]: 5.600
- SHAQ Visual Analogue Scale - Overall Disease Severity, In-Clinic Visit (Day 12), Median [4]: 6.550
- SHAQ Visual Analogue Scale - Overall Disease Severity, Percent Change from Baseline, Mean [4]: 32.49%
- SHAQ Visual Analogue Scale - Overall Disease Severity, Percent Change from Baseline, Median [4]: 26.79%
- SHAQ Visual Analogue Scale - Pain, Change from Baseline, Mean [4]: 1.000
- SHAQ Visual Analogue Scale - Pain, Change from Baseline, Median [4]: 0.800
- SHAQ Visual Analogue Scale - Pain, In-Clinic Visit (Day 12), Mean [4]: 5.300
- SHAQ Visual Analogue Scale - Pain, In-Clinic Visit (Day 12), Median [4]: 5.850
- SHAQ Visual Analogue Scale - Pain, Percent Change from Baseline, Mean [4]: 31.35%
- SHAQ Visual Analogue Scale - Pain, Percent Change from Baseline, Median [4]: 10.81%
- SHAQ Visual Analogue Scale - Raynaud's, Change from Baseline, Mean [4]: −0.825
- SHAQ Visual Analogue Scale - Raynaud's, Change from Baseline, Median [4]: −0.500
- SHAQ Visual Analogue Scale - Raynaud's, In-Clinic Visit (Day 12), Mean [4]: 4.950
- SHAQ Visual Analogue Scale - Raynaud's, In-Clinic Visit (Day 12), Median [4]: 5.200
- SHAQ Visual Analogue Scale - Raynaud's, Percent Change from Baseline, Mean [4]: −19.71%
- SHAQ Visual Analogue Scale - Raynaud's, Percent Change from Baseline, Median [4]: −20.67%
- SHAQ Visual Analogue Scale - Breathing Problems, Change from Baseline, Mean [5]: 0.500
- SHAQ Visual Analogue Scale - Breathing Problems, Change from Baseline, Median [5]: 1.050
- SHAQ Visual Analogue Scale - Breathing Problems, In-Clinic Visit (Day 12), Mean [5]: 4.300
- SHAQ Visual Analogue Scale - Breathing Problems, In-Clinic Visit (Day 12), Median [5]: 4.000
- SHAQ Visual Analogue Scale - Breathing Problems, Percent Change from Baseline, Mean [5]: −2.66%
- SHAQ Visual Analogue Scale - Breathing Problems, Percent Change from Baseline, Median [5]: 29.58%
- SHAQ Alternative Disability Index, Mean [6]: 0.375
- SHAQ Alternative Disability Index, Median [6]: 0.250
- SHAQ Standard Disability Index, Mean [6]: 0.531
- SHAQ Standard Disability Index, Median [6]: 0.563
- SHAQ Finger Ulcers, Baseline, Mean [7]: 2.075
- SHAQ Finger Ulcers, Baseline, Median [7]: 0.050
- SHAQ Finger Ulcers, In Clinic Visit (Day 12), Mean [7]: 2.325
- SHAQ Finger Ulcers, In Clinic Visit (Day 12), Median [7]: 0.050
- SHAQ Standard disability index, Baseline, Mean [7]: 0.594
- SHAQ Standard disability index, Baseline, Median [7]: 0.625
- SHAQ Standard disability index, In Clinic Visit (Day 12), Mean [7]: 0.531
- SHAQ Standard disability index, In Clinic Visit (Day 12), Median [7]: 0.563
- SHAQ Visual Analog Scale-Breathing Problems, Baseline, Mean [7]: 3.800
- SHAQ Visual Analog Scale-Breathing Problems, Baseline, Median [7]: 4.050
- SHAQ Visual Analog Scale-Breathing Problems, In Clinic Visit (Day 12), Mean [7]: 4.300
- SHAQ Visual Analog Scale-Breathing Problems, In Clinic Visit (Day 12), Median [7]: 4.000
- SHAQ Visual Analog Scale-Intestinal Problems, Baseline, Mean [7]: 3.150
- SHAQ Visual Analog Scale-Intestinal Problems, Baseline, Median [7]: 2.600
- SHAQ Visual Analog Scale-Intestinal Problems, In Clinic Visit (Day 12), Mean [7]: 3.025
- SHAQ Visual Analog Scale-Intestinal Problems, In Clinic Visit (Day 12), Median [7]: 1.450
- SHAQ Visual Analog Scale-Pain, Baseline, Mean [7]: 5.967
- SHAQ Visual Analog Scale-Pain, Baseline, Median [7]: 7.400
- SHAQ Visual Analog Scale-Pain, In Clinic Visit (Day 12), Mean [7]: 5.300
- SHAQ Visual Analog Scale-Pain, In Clinic Visit (Day 12), Median [7]: 5.850
- SHAQ Visual Analog Scale-Raynaud's, Baseline, Mean [7]: 5.775
- SHAQ Visual Analog Scale-Raynaud's, Baseline, Median [7]: 6.400
- SHAQ Visual Analog Scale-Raynaud's, In Clinic Visit (Day 12), Mean [7]: 4.950
- SHAQ Visual Analog Scale-Raynaud's, In Clinic Visit (Day 12), Median [7]: 5.200
- SHAQ alternative disability index, Baseline, Mean [7]: 0.469
- SHAQ alternative disability index, Baseline, Median [7]: 0.375
